Reference: patent publication US20260297027A1, “Non-Peptide Small Molecule FGF14:Nav1.6 Channel Complex Protein-Protein Interaction Modulators” (The Board of Regents of The University of Texas System, priority 2023, published 2026)
Entries after “also recorded” stand apart in the source; their conditions may differ.

Legend:
FGF14 = molecular target: T1, FGF14 (Homo sapiens, UniProt Q92915); assay: Surface plasmon resonance (SPR), FGF14; format: binding
T1 sequence (Q92915 1-252 isoform Q92915-2): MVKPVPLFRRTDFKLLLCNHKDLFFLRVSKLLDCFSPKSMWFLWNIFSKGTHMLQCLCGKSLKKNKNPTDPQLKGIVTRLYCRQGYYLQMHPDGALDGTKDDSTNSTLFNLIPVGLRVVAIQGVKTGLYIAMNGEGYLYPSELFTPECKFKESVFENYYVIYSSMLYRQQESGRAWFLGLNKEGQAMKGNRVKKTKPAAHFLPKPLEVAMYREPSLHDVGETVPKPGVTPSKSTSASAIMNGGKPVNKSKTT
Method: (§1) Secondary bioactivity assays: Surface plasmon resonance (SPR). Analogues were then tested using SPR against FGF14 and Nav1.6-C-terminal tail purified proteins, the gold standard for protein binding studies. SPR experiments were used to quantitatively assess the binding affinity of analogues, serving as both a secondary bioactivity assay to determine accurate binding affinities for protein:ligand interactions via KD, Kon and Koff, as well as to assess the compound's ability to disrupt PPI. The reliability of the model, goodness of fit, and reported kinetic and binding constants were validated by varying flow rates, immobilization densities, or different chips. Statistical analysis was conducted by visually inspecting the goodness of fit of the data from the residuals. Additionally, c2 was used as a global measure for residual noise; standard deviation was used to report errors in measurements by repeating the experiment at least three times.
FIGS. 2A and 2B summarize selectivity and orthogonal validation of hits from the screening assay. […] Compounds that modulated complex assembly by ≥25% were excluded from further studies. Referring to FIG. 2B, the remaining 5 selective hits were then quantitatively assessed using SPR. Binding sensorgrams are shown for FGF14 (left) and Nav1.6 (middle) and normalized steady-state saturation plots (right) reveal differences in compound:protein binding affinities. Kinetic analysis of each ligand/analyte interaction was obtained by fitting the response data to the simplest Langmuir 1:1 interaction model (KD=koff/kon).
Referring to FIG. 2B, the remaining 5 selective hits were then quantitatively assessed using SPR. Binding sensorgrams are shown for FGF14 (left) and Nav1.6 (middle) and normalized steady-state saturation plots (right) reveal differences in compound:protein binding affinities. Kinetic analysis of each ligand/analyte interaction was obtained by fitting the response data to the simplest Langmuir 1:1 interaction model (KD=koff/kon).

Nav1.6 = molecular target: T2, Nav1.6 (Homo sapiens, UniProt Q9UQD0); assay: Surface plasmon resonance (SPR), Nav1.6-C-terminal tail; format: binding; settings: Langmuir 1:1 interaction model (KD=koff/kon)
T2 construct: SPR against FGF14 and Nav1.6-C-terminal tail purified proteins
T2 sequence (Q9UQD0 1767-1912 limits assumed): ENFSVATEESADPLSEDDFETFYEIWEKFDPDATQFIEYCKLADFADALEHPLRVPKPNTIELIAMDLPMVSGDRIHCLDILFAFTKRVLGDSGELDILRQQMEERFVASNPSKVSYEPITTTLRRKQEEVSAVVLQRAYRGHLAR
Method: as §1
FIGS. 2A and 2B summarize selectivity and orthogonal validation of hits from the screening assay. […] Compounds that modulated complex assembly by ≥25% were excluded from further studies. Referring to FIG. 2B, the remaining 5 selective hits were then quantitatively assessed using SPR. […]
Referring to FIG. 2B, the remaining 5 selective hits were then quantitatively assessed using SPR. […]

[1] = test system: medium spiny neurons (MSN), Fgf14^+/+; assay: Patch-clamp electrophysiology in brain slices, MSN of NAc from Fgf14+/+ mice; format: cell-based; settings: 1 micromolar, in words
Method: (§2) Patch-clamp electrophysiology in brain slices. This assay provides a critical confirmatory step from the heterologous cell to the native system. With this assay, selected compounds were tested (typically, 3 concentrations) for their modulatory effects on MSN firing and Na+ currents using current clamp and voltage clamp recordings Parameters of interest included action potential threshold, amplitude, rise time, firing frequency, amplitude of Na+ currents and passive properties (i.e., Rseries, Rinput, Vm). Not only is this assay predictive of a compound's in vivo activity, it provides an assessment of potential toxicity and side effects based on secondary measurements (i.e., frequency, amplitude, and kinetics of synaptic potentials, Rinput, Vm). This assay was also used as the first target validation step in native tissue as compounds are concomitantly tested in neurons from Fgf14^−/− mice. Recordings were conducted from at least N=3 animals, n=10-15 recordings; effect is calculated using ANOVA mixed model.
(§3) Target validation of compound PW01028 in NAc slices.

[2] = test system: Nav1.6 (cells stably expressing Nav1.6 and FGF14-GFP); assay: Patch-clamp electrophysiology in heterologous cells expressing Nav1.6 and FGF14; format: cell-based; settings: 1 μM
Method: (§4) Confirmatory assays: Automated and manual patch-clamp electrophysiology in heterologous cells. Patch-clamp electrophysiology is a rigorous, sophisticated confirmatory and orthogonal assay that serves to assess compound functional activity, mechanism of action, specificity, and selectivity toward various Nav isoforms. It is highly predictive of in vivo efficacy of compounds. In this assay, compounds are tested in cells stably expressing FGF14 and Nav1.6 or other relevant iFGF:Nav channel pairs. Initially screened with an automated planar patch-clamp system, compounds were tested with an 8-point dose-response in 384-well plates with a throughput of >2,000 data sets/week. Compounds were then confirmed with manual patch-clamp at targeted concentrations. A multitude of physiological parameters of Nav channels including Na+ current amplitude, kinetics, voltage-dependence, use-dependency, and time-dependency reflecting the channel closed, opened, and inactivated states were automatically measured using specialized software (i.e., CLAMPEX). Data were typically derived from n=10-20 recordings, N=3 batches of cells. Data were compared using either Student's t-test or two-way ANOVA mixed model.
(§5) Functional activity of Compound PW01028. To study compound PW01028 functional activity against Nav1.6-encoded currents were studied in heterologous cells stably expressing Nav1.6 and/or FGF14-GFP (FIGURE). […]

[3] = test system: medium spiny neurons (MSN), Fgf14^−/−; assay: Patch-clamp electrophysiology in brain slices, MSN of NAc from Fgf14-/- mice; format: cell-based; settings: n=7-8/group, p>0.05, in words
Method: as §2, §3

FGF14:Nav1.6 complex = molecular target: T3, FGF14:Nav1.6 complex (Homo sapiens, UniProt Q92915+Q9UQD0); assay: Split-luciferase complementation assay (LCA); format: cell-based
T3 construct: split firefly luciferase complementation
T3 sequence (Q9UQD0 1763-1980 limits assumed, one chain of several): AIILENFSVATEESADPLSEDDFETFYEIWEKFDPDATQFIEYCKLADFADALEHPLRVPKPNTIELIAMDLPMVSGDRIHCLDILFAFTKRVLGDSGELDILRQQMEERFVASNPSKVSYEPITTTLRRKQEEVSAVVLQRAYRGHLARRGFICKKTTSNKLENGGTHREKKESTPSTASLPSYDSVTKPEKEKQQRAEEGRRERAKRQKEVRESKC
From the text: To identify small molecule probes targeting the FGF14:Nav1.6 PPI interface, the FGF14:Nav1.6 complex was reconstituted using the split-luciferase complementation assay (LCA), and a candidate pool of ~45,000 commercially available compounds was screened. An established screening pipeline was employed to validate hits. […] FIG. 1B summarizes exclusion of compounds based on the CellTiter Blue (CTB) cell viability fluorescence assay.
Primary assays: Split-luciferase complementation assay (LCA). The primary assay to detect FGF14:Nav1.6 complex formation in real-time in living cells is the split-luciferase complementation assay (LCA), which has been designed and successfully implemented specifically to study PPI between the Nav channel and iFGFs. With LCA, in-cell reconstitution of the FGF14:Nav1.6 channel complex was detected upon addition of the D-luciferin substrate, as a robust light signal representing the strength of interaction between the two binding partners. […] The high signal-to-noise ratio, favorable dynamic range, and reversibility of luminescence-based signals make LCA the ideal for HTS of potential regulators, as well as rapid dose-dependency studies (≥8 concentrations) to help guide subsequent in-depth hit validation using more labor-intensive approaches. […]

[4] = molecular target: T4, Nav1.6 (HEK-Nav1.6 expressing GFP control) (Homo sapiens, UniProt Q9UQD0); assay: Patch-clamp electrophysiology in HEK-Nav1.6 cells expressing the GFP control construct; format: cell-based; settings: HEK-Nav1.6 expressing the GFP control construct; in words
T4 construct: patch clamp
T4 sequence (Q9UQD0 whole entry): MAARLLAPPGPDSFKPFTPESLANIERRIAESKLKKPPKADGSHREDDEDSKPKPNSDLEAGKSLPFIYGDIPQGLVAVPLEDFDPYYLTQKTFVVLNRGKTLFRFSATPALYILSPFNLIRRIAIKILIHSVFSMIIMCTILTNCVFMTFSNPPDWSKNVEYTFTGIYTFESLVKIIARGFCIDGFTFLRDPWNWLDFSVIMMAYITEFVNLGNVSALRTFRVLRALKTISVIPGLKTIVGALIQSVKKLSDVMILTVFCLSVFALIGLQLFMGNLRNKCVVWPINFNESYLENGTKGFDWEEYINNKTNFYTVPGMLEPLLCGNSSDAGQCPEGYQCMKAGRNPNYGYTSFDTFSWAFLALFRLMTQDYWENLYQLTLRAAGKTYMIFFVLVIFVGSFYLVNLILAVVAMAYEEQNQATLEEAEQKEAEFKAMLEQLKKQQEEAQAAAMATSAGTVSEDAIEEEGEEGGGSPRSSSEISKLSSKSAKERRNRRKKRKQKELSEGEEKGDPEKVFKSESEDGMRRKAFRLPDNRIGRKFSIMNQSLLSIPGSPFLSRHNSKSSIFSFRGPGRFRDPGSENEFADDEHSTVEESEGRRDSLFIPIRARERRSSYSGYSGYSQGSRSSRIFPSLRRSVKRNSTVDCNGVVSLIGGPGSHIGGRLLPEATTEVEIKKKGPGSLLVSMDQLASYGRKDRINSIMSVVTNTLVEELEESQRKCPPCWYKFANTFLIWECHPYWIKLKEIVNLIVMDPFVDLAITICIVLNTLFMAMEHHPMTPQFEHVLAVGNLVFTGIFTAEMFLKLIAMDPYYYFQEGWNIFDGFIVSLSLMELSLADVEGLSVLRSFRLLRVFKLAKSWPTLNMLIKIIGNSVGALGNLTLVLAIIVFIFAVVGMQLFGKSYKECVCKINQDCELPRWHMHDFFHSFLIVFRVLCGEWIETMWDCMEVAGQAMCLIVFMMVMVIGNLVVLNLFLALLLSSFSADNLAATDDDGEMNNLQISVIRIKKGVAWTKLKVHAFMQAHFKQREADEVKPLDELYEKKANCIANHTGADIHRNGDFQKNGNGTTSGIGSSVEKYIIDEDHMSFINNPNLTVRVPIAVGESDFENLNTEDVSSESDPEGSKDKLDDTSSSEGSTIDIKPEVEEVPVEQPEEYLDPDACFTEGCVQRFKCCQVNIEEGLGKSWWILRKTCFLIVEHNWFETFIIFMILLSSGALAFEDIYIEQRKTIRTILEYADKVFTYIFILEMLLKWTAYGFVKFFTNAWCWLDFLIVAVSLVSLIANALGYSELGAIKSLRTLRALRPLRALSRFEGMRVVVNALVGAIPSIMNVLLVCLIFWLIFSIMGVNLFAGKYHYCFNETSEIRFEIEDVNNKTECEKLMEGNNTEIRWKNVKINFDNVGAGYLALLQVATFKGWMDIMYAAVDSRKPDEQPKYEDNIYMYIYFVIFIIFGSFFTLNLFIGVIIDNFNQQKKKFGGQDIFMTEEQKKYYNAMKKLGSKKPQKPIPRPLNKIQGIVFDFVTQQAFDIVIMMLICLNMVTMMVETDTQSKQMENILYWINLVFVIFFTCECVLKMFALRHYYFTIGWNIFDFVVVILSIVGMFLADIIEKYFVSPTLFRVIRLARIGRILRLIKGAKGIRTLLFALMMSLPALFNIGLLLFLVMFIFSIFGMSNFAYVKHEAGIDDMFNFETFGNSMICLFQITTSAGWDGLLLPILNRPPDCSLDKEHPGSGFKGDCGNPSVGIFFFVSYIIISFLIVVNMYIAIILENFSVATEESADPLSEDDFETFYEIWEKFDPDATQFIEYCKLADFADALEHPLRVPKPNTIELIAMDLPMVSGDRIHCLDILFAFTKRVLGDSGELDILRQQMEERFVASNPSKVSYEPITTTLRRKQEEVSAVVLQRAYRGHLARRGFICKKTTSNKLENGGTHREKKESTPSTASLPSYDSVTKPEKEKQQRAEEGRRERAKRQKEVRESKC
Method: as §4, §5

Row | Kd (FGF14; Langmuir 1:1 interaction model (KD=koff/kon)) | Kd (Nav1.6) | binding affinity to FGF14 (FGF14; in words) | IC50 (FGF14:Nav1.6 complex; LCA, read-out: IC50 for modulation of FGF14:Nav1.6 complex formation) | potency in the LCA dose-response studies (FGF14:Nav1.6 complex; dose-response, in words) | functional effects [4] | Compound | effect on Nav channel closure / Na+ currents in MSN ([1]; Fgf14+/+ (wild-type) mice) | effect on MSN firing ([1]; Fgf14+/+ mice, n=19-20/group, p<0.0001) | depolarizing shift in the voltage-dependence of steady-state inactivation of the transient Na+ current ([2]; FGF14-mediated regulatory effects on Nav1.6) | effect on voltage-dependence (V1/2) of steady-state inactivation ([2]; in words, n=6-10 cells/group) | effect on MSN firing / Na+ currents [3] | ligand binding to the FGF14 R117 residue (FGF14; in words)
1 | 2.9 µM | 13.6 µM | – | – | – | – | Cc1cccc(NC(=O)Cn2cc(CO)c3ccccc32)c1 [Compound 7605086, 2-(3-(Hydroxymethyl)-1H-indol-1-yl)-N-(m-tolyl)acetamide] | – | – | – | – | – | –
2 | – | – | nanomolar binding affinity | ~0.25 µM | nanomolar potency | no functional effects | CCOC(=O)c1cccc(NC(=O)Cn2cc(CO)c3ccccc32)c1 [PW01028, Ethyl 3-(2-(3-(hydroxymethyl)-1H-indol-1-yl)acetamido)benzoate] | potentiated MSN firing and transient Na^+ currents (INaP); also recorded: hampered Nav channel closure, prolonged Na+ currents | potentiated MSN firing; also recorded: increases firing in MSN; also recorded: potentiated intrinsic firing | +15 mV | markedly shifted V1/2 and steady-state inactivation to a more depolarized potential; also recorded: shifts voltage-dependence of steady-state inactivation of Na+ currents | inactive in MSN from Fgf14^−/− mice; also recorded: Lack of effect; also recorded: absent in Fgf14^−/− mice | evidence for ligand binding to the FGF14^R117 residue
